Biological target: T1, Asu-ACR-16 (Ascaris suum, UniProt A0A0K0QSL7)
T1 sequence (A0A0K0QSL7 24-504): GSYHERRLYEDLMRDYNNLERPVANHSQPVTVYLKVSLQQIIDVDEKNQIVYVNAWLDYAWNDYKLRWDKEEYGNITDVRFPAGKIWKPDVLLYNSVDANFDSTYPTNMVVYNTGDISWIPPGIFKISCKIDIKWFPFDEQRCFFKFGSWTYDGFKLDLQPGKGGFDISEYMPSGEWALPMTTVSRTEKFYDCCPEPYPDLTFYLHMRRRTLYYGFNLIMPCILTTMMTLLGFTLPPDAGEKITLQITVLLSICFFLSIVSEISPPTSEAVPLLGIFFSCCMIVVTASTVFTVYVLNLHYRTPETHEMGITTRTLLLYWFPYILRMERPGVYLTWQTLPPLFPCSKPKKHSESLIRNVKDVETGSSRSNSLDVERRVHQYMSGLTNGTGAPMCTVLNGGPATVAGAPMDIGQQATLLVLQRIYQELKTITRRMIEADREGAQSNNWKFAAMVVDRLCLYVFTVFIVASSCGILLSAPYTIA
Assay: two-electrode voltage clamp, agonist concentration-response in Xenopus oocytes
Type: cell-based

`CC(=O)OCC[N+](C)(C)C` [ACh] gave an EC50 of 5.9 ± 0.1 µM.

`CN1CCC[C@H]1c1cccnc1` [nic, nicotine] showed an EC50 of 4.5 ± 0.2 µM.
